{"source": "patent US20120149080A1", "about": "“YEAST PRODUCTION CULTURE FOR THE PRODUCTION OF BUTANOL” (Butamax(TM) Advanced Biofuels LLC, priority 2010, published 2012)", "assay_in_all_cases": "24 h survival (CFU) of non-Saccharomyces yeast, HCD/LCD", "format_in_all_cases": "cell-based", "settings_in_all_cases": "for Percent Survival HCD: high cell density; for Percent Survival LCD: low cell density", "key": {"[1]": {"test_system": "Issatchenkia orientalis PNY0576", "procedure": "(§1) Non-Saccharomyces yeast strains were tested to determine whether isobutanol tolerance is affected by cell density for these yeasts. Kluyveromyces marxianus PNY0577 (American Type Culture Collection (“ATCC”), Manassas, Va.; ATCC #8554), Kluyveromyces marxians PNY0578 (ATCC #16045), Pichia membranifaciens PNY0572, Pichia anomala PNY0573, Pichia sp. PNY0574, Issatchenkia orientalis PNY0575 and Issatchenkia orientalis PNY0576 were tested. The Pichia and Issatchenkia strains used are wild-type representatives of the designated genera. Other representative strains are commercially available, for example, from ATCC.\n(§2) The non-Saccharomyces yeast strains were plated from freezer vials onto YPD agar (Teknova, Hollister, Calif.) and incubated overnight at 30° C. Cells from each strain from the YPD plates were inoculated into a 25 ml pre-culture of YPD broth) (Teknova, Hollister, Calif.) with an initial OD600 of 0.06 to 0.08 and grown for 7 hours in an aerobic shaker at 30° C. An aliquot of each pre-culture was inoculated into 200 ml YPD broth, to provide an initial OD600 of 0.06 to 0.08 and the resulting culture was incubated with aeration at 30° C. for approximately 17 hours. The optical density of the culture was measured, the culture was centrifuged and the cells were resuspended to yield an OD600 of 5 in fresh YPD broth. This is referred to as a high cell density (HCD) culture. This culture was diluted 100 fold into fresh YPD broth to give a culture with an OD600 of 0.05. This is referred to as a low cell density (LCD) culture. These cultures were incubated at 30° C. with shaking for 30 minutes for an acclimation period. At the end of the 30 minute acclimation period, the OD600 was measured.\n(§3) 5 ml of low or high cell density culture was dispensed to 15 ml conical tubes which contained the concentrations of isobutanol to be tested. The tubes were placed in a rotary drum at 30° C. and incubated for 24 hours. The isobutanol concentration was 1.0% or 2.0%. A control culture for each strain contained no isobutanol. The time of addition of cells was “time 0”. […] All samples were filtered with Acrodisc CR PTFE 0.2 μm filters (Pall Life Sciences, Port Washington, N.Y.) and analyzed using a Shodex SH1011 column (8 mm ID×300 mm length; Showa Denko America, Inc., New York, N.Y.) and a Shodex SH-G as a guard column. The injection volume was 10 μL. The mobile phase was 0.01N sulfuric acid. The column temperature was 50° C. with a mobile phase flow rate of 0.5 mL/min. For detection, a photometric detector at 210 nm and a refractive index detector were used.\n(§4) Colony forming units (CFUs) were determined on YPD plates at time 0 for the controls and at 24 hours for all samples, including the control cultures, using standard microbiological methods. Essentially, cells were serially diluted in a microtiter plate (20 μl of the culture and 180 μl of YPD broth) and 10 μl of the various dilutions were spotted onto triplicate agar plates and incubated at 30° C. for 24 and 48 hours. Colonies were counted after 48 hours and CFUs/ml were calculated. The percent survival was calculated based on the CFUs/ml of the 24 hour HCD or LCD control culture for each strain and results are given in Table 3."}, "Pichia anomala PNY0573": {"test_system": "Pichia anomala PNY0573", "procedure": "as §1, §2, §3, §4"}, "[2]": {"test_system": "Kluyveromyces marxianus PNY0578", "procedure": "as §1, §2, §3, §4"}, "[3]": {"test_system": "Issatchenkia orientalis PNY0575", "procedure": "as §1, §2, §3, §4"}, "Pichia sp. PNY0574": {"test_system": "Pichia sp. PNY0574", "procedure": "as §1, §2, §3, §4"}, "[4]": {"test_system": "Pichia membranifaciens PNY0572", "procedure": "as §1, §2, §3, §4"}, "[5]": {"test_system": "Kluyveromyces marxianus PNY0577", "procedure": "as §1, §2, §3, §4"}}, "data": [{"smiles": "CC(C)CO", "note": "[Isobutanol, isobutanol]", "values": [{"measurement": "Percent Survival HCD", "setting": "[1]; PNY0576, 1% isobutanol", "result": 50, "unit": "%"}, {"measurement": "Percent Survival LCD", "setting": "[1]; PNY0576, 1% isobutanol", "result": 12.8, "unit": "%"}, {"measurement": "Percent Survival HCD", "setting": "[1]; PNY0576, 2% isobutanol", "result": "<0.001", "unit": "%"}, {"measurement": "Percent Survival LCD", "setting": "[1]; PNY0576, 2% isobutanol", "result": "<0.001", "unit": "%"}, {"measurement": "Percent Survival HCD", "setting": "Pichia anomala PNY0573; PNY0573, 1% isobutanol", "result": 75.6, "unit": "%"}, {"measurement": "Percent Survival LCD", "setting": "Pichia anomala PNY0573; PNY0573, 1% isobutanol", "result": 0.1, "unit": "%"}, {"measurement": "Percent Survival HCD", "setting": "Pichia anomala PNY0573; PNY0573, 2% isobutanol", "result": "<0.001", "unit": "%"}, {"measurement": "Percent Survival LCD", "setting": "Pichia anomala PNY0573; PNY0573, 2% isobutanol", "result": "<0.001", "unit": "%"}, {"measurement": "Percent Survival HCD", "setting": "[2]; PNY0578, 1% isobutanol", "result": 51, "unit": "%"}, {"measurement": "Percent Survival LCD", "setting": "[2]; PNY0578, 1% isobutanol", "result": "<0.001", "unit": "%"}, {"measurement": "Percent Survival HCD", "setting": "[2]; PNY0578, 2% isobutanol", "result": "<0.001", "unit": "%"}, {"measurement": "Percent Survival LCD", "setting": "[2]; PNY0578, 2% isobutanol", "result": "<0.001", "unit": "%"}, {"measurement": "Percent Survival HCD", "setting": "[3]; PNY0575, 1% isobutanol", "result": 61.3, "unit": "%"}, {"measurement": "Percent Survival LCD", "setting": "[3]; PNY0575, 1% isobutanol", "result": 3.1, "unit": "%"}, {"measurement": "Percent Survival HCD", "setting": "[3]; PNY0575, 2% isobutanol", "result": "<0.001", "unit": "%"}, {"measurement": "Percent Survival LCD", "setting": "[3]; PNY0575, 2% isobutanol", "result": "<0.001", "unit": "%"}, {"measurement": "Percent Survival HCD", "setting": "Pichia sp. PNY0574; PNY0574, 1% isobutanol", "result": 100, "unit": "%"}, {"measurement": "Percent Survival LCD", "setting": "Pichia sp. PNY0574; PNY0574, 1% isobutanol", "result": 10, "unit": "%"}, {"measurement": "Percent Survival HCD", "setting": "Pichia sp. PNY0574; PNY0574, 2% isobutanol", "result": 100, "unit": "%"}, {"measurement": "Percent Survival LCD", "setting": "Pichia sp. PNY0574; PNY0574, 2% isobutanol", "result": 0.5, "unit": "%"}, {"measurement": "Percent Survival HCD", "setting": "[4]; PNY0572, 1% isobutanol", "result": 80.6, "unit": "%"}, {"measurement": "Percent Survival LCD", "setting": "[4]; PNY0572, 1% isobutanol", "result": 2.7, "unit": "%"}, {"measurement": "Percent Survival HCD", "setting": "[4]; PNY0572, 2% isobutanol", "result": "<0.001", "unit": "%"}, {"measurement": "Percent Survival LCD", "setting": "[4]; PNY0572, 2% isobutanol", "result": "<0.001", "unit": "%"}, {"measurement": "Percent Survival HCD", "setting": "[5]; PNY0577, 1% isobutanol", "result": 39.5, "unit": "%"}, {"measurement": "Percent Survival LCD", "setting": "[5]; PNY0577, 1% isobutanol", "result": 0.1, "unit": "%"}, {"measurement": "Percent Survival HCD", "setting": "[5]; PNY0577, 2% isobutanol", "result": "<0.001", "unit": "%"}, {"measurement": "Percent Survival LCD", "setting": "[5]; PNY0577, 2% isobutanol", "result": "<0.001", "unit": "%"}]}]}
